Measured values: patent US20220403001A1, “PDE5 DERIVED REGULATORY CONSTRUCTS AND METHODS OF USE IN IMMUNOTHERAPY” (Obsidian Therapeutics, Inc., priority 2018, published 2022)

How the values were obtained:
[1] = test system: hPDE5 mutants; experiment: GFP expression (MFI) by FACS in HEK293 cells expressing hPDE5 constructs
Experimental: The mutant library was ligated in frame with an AcGFP reporter at C-terminus and cloned into pLVX-IRES—Puro vectors. […] DNA was extracted from the cell pool, cloned into vectors, and transformed into E. coli. Individual clones were sequenced and cloned in frame with a linker [sequence] […] HEK293 cells were transduced with individual clones and selected with puromycin.
The GFP expression in cells expressing hPDE5 constructs was measured by FACS.
The stability of hPDE5 mutants was measured using FACS and mean fluorescence intensity (MFI) of GFP was calculated.

[2] = test system: hPDE5 mutants; experiment: GFP MFI by FACS in HCT116 cells transduced with hPDE5 constructs; type: cell-based, human; settings: for MFI: 48 hours, HCT 116 cells
Experimental: (§1) Desirable qualities of a DD include, low expression of the SRE in the absence of ligand and ligand dependent stabilization of the SRE. Constructs were generated using DDs linked to GFP using an SG linker. […] The mean fluorescence intensity (MFI) of GFP was analyzed by FACS. […] Destabilizing mutation coefficient less than 1 are desirable.
(§2) Mean fluorescence intensity (MFI) was measured by FACS. […] Destabilizing mutation coefficient ratios less than 1 are desirable.
(§3) Mean fluorescence intensity (MFI) was measured by FACS. […] Destabilizing mutation co-efficient ratios less than 1 are desirable.
(§4) Mean fluorescence intensity (MFI) was measured by FACS. […] Destabilizing mutation coefficient less than 1 are desirable.
as §4
(§5) Mean fluorescence intensity (MFI) of GFP was measured by FACS.
(§6) Mean fluorescence intensity (MFI) was measured by FACS.
(§7) The media containing the ligand was removed and fresh media without the ligand was added.
(§8) The properties of the DDs were analyzed in the presence and absence of ligands via FACS as previously described.
(§9) GFP fluorescence was measured by FACS.
(§10) The properties of the DDs were analyzed via FACS both in the presence and absence of ligands.
as §9

[3] = target: T1, hPDE5 mutants (Homo sapiens, UniProt O76074); experiment: as above; type: cell-based
Experimental: as §1, §2, §3, §4, §4, §5, §6, §7, §8, §9, §10, §9

[4] = target: T1, hPDE5 mutants; experiment: Western blot of AcGFP/GFP protein levels in HCT 116 cells expressing hPDE5 mutants; type: cell-based; design: GFP protein levels (western blot); fused on or other part: AcGFP reporter through a linker; settings: vardenafil vs DMSO, HCT 116, R732 mutants
Experimental: Protein expression analysis of the combination mutants was performed in parallel via western blot. […] GAPDH levels were also analyzed to ensure even protein loading.

[5] = Sildenafil 0.0005 μM, 48 h, HEK293
[6] = Sildenafil 3.33 μM, 48 h, HEK293
[7] = Sildenafil 10 μM, 48 h, HEK293 (dose titration)
[8] = Sildenafil 10 μM, 48 h, HEK293 (time course)
[9] = Vardenafil 0.0005 μM, 48 h, HEK293
[10] = Vardenafil 3.33 μM, 48 h, HEK293
[11] = Vardenafil (10 μM), 48 h, Table 25, cell line not given in table

Substance: OT-001083: hPDE5-Y728L AcGFP construct
- MFI [1, 5]: 4422
- Stabilization ratio [1, 5]: 1.01
- MFI [1, 6]: 17960
- Stabilization ratio [1, 6]: 4.09
- MFI ([1]; Sildenafil 10 μM, 2 h, HEK293): 7290
- Stabilization ratio ([1]; Sildenafil 10 μM, 2 h, HEK293): 1.37
- MFI ([1]; Sildenafil 10 μM, 4 h, HEK293): 8675
- Stabilization ratio ([1]; Sildenafil 10 μM, 4 h, HEK293): 1.64
- MFI ([1]; Sildenafil 10 μM, 6 h, HEK293): 10929
- Stabilization ratio ([1]; Sildenafil 10 μM, 6 h, HEK293): 2.06
- MFI ([1]; Sildenafil 10 μM, 16 h, HEK293): 19034
- Stabilization ratio ([1]; Sildenafil 10 μM, 16 h, HEK293): 3.59
- MFI ([1]; Sildenafil 10 μM, 24 h, HEK293): 27246
- Stabilization ratio ([1]; Sildenafil 10 μM, 24 h, HEK293): 5.14
- MFI [1, 7]: 32480
- Stabilization ratio [1, 7]: 7.40
- MFI [1, 8]: 34796
- Stabilization ratio [1, 8]: 6.56
- MFI [1, 9]: 7894
- Stabilization ratio [1, 9]: 0.99
- MFI [1, 10]: 134306
- Stabilization ratio [1, 10]: 16.85
- MFI ([1]; Vardenafil 10 μM, 48 h, HEK293): 166236
- Stabilization ratio ([1]; Vardenafil 10 μM, 48 h, HEK293): 20.86
- Stabilization ratio ([1]; Vardenafil (1 μM), 48 h, Table 25, cell line not given in table): 13.26
- MFI ([1]; Vardenafil (1 μM), 48 h, Table 25, cell line not given in table (HEK293, HCT-116, SKOV-3)): 68816
- MFI [1, 11]: 123150
- Stabilization ratio [1, 11]: 23.72

Substance: OT-001187: hPDE5 R732A AcGFP construct
- MFI ([2]; Tadalafil 11.11 μM): 5126
- MFI ([2]; Tadalafil 33.33 μM): 6264
- MFI ([2]; Tadalafil 100 μM): 6301
- MFI ([2]; Tadalafil 1000 μM): 6301
- Sildenafil Destabilizing mutation coefficient ([2]; hotspot constructs, DMSO control of Sildenafil, vs OT-001075): 0.29
- Vardenafil Destabilizing mutation coefficient ([2]; hotspot constructs, DMSO control of Vardenafil, vs OT-001075): 1.09
- GFP by FACS, Sildenafil 0 μM (DMSO) ([2]; hotspot constructs, HCT116, DMSO control of Sildenafil): 288
- GFP by FACS, Vardenafil 0 μM (DMSO) ([2]; hotspot constructs, HCT116, DMSO control of Vardenafil): 175
- MFI ([3]; Table 44, Vardenafil 0.01 μM, 48 h, HCT 116): 2551
- MFI ([3]; Table 44, Vardenafil 0.04 μM, 48 h, HCT 116): 8345
- MFI ([3]; Table 44, Vardenafil 3.33 μM, 48 h, HCT 116): 16783
- MFI ([3]; Table 44, Vardenafil 10 μM, 48 h, HCT 116): 18945
- MFI ([3]; Table 44, Vardenafil 30 μM, 48 h, HCT 116): 22548
- MFI ([3]; Table 44, Vardenafil 1000 μM, 48 h, HCT 116): 22548
- MFI ([3]; Table 45, Sildenafil 0.01 μM, 48 h, HCT 116): 808
- MFI ([3]; Table 45, Sildenafil 0.04 μM, 48 h, HCT 116): 1025
- MFI ([3]; Table 45, Sildenafil 3.33 μM, 48 h, HCT 116): 3769
- MFI ([3]; Table 45, Sildenafil 10 μM, 48 h, HCT 116): 4716
- MFI ([3]; Table 45, Sildenafil 30 μM, 48 h, HCT 116): 5694
- MFI ([3]; Table 45, Sildenafil 1000 μM, 48 h, HCT 116): 5694
- MFI ([3]; Tadalafil 0.01 μM, 48 hours, HCT 116 cells): 752
- Vardenafil Stabilization ratio ([3]; hotspot constructs, 1 μM Vardenafil): 4.87
- Sildenafil Stabilization ratio ([3]; hotspot constructs, 10 μM Sildenafil): 1.21
- GFP by FACS, Sildenafil 10 μM ([3]; hotspot constructs, HCT116): 348
- GFP by FACS, Vardenafil 1 μM ([3]; hotspot constructs, HCT116): 853
- GFP protein levels (western blot) [4]: strong stabilization of GFP levels
